Results taken from patent US20160201132A1, “GENE EXPRESSION BIOMARKERS OF LAQUINIMOD RESPONSIVENESS” (Teva Pharmaceutical Industries Ltd., priority 2013, published 2016).

Key:
RRMS patients [1] = details: 106 RRMS patients vs 102 placebo treated RRMS patients; cited from earlier work
ITGB1 = test: Western blot verification of ITGB1 protein in PBMC of LAQ-treated RRMS patients; format: in vivo, human; details: six months of LAQ treatment vs baseline, n=5
Protocol: FIG. 10: Expression of TGFb, ITGB1 and CXCR1 in RRMS patients treated with LAQ. Protein extracts were prepared from PBMCs samples derived from RRMS patients before treatment (black bars) and compared to PBMCs samples of the same patients after six months of LAQ treatment (white bars). The signal intensity of a protein bands were quantified by Quantity One 4.6.9 software. The resultant background-subtracted values of protein expression were normalized to those of Tubulin and then calculated as the relative protein levels for each patient before or after LAQ treatment. The blot images in A, B and C are representative of two out of five analyzed patients showing down regulation of TGFb, ITGB1 and CXCR1, respectively as also quantified by densitometry of bands analyzed from five patients. Data are presented as mean±SEM. Statistically significant differences are marked in graphs (n=5, paired one-tailed t-test). Protein fractions were purified from PBMC of 5 patients at baseline and after six months of LAQ treatment. Proteins were extracted from TRIZOL fractions and solubilized following the method reported by Hummon et al., 2007 (Hummon et al., 2007). […] Blots were analyzed by standard chemi-luminescence (Supersignal Kit, Pierce, Rockford, Ill., USA) and visualization was done by ChemiDoc™ XRS System (Bio-Rad).

TGFB1 = test: Western blot verification of TGFB1 (TGFb) protein in PBMC of LAQ-treated RRMS patients; format: in vivo, human
Protocol: FIG. 5: Expression of TGFB1 in PBMCs of RRMS patients following treatment with LAQ. Protein samples ([…]) were prepared from phenol/ethanol fractions of PBMCs derived from patients after 6 month of LAQ treatment (+) and compared to PBMCs samples of the same patients before treatment (−) (FIGS. 5A and 5C). From each sample 30 ug was separated on 10% SDS-PAGE. Blots were incubated with Rabbit a-TGFb1 (1:250) and mouse Tubulin (1:500). The signal intensities of a protein band and its surrounding background were scanned for each protein and quantified by using Quantity One 4.6.9 software (Bio-Rad Laboratories, Hercules, Calif.). […] The signal intensity of a protein bands were quantified by Quantity One 4.6.9 software. The resultant background-subtracted values of protein expression were normalized to those of Tubulin and then calculated as the relative protein levels for each patient before or after LAQ treatment. The blot images in A, B and C are representative of two out of five analyzed patients showing down regulation of TGFb, ITGB1 and CXCR1, respectively as also quantified by densitometry of bands analyzed from five patients. […] Supernatant was collected and protein concentration was determined using a Bradford assay (Pierce, Rockford, Ill., USA) according the manufacturer's guidelines. […]

PAI-1 (Serpine 1) = test: Western blot verification of PAI-1 (Serpine 1) protein in PBMC of LAQ-treated patients; format: in vivo, human; details: four out of five patients, after 6 months of LAQ treatment
Protocol: FIG. 6: Expression of PAI-1 (Serpine 1) in PBMCs of patients following treatment with LAQ. Protein samples were prepared from phenol/ethanol fractions of PBMCs derived from patients after 6 month of LAQ treatment (+) and compare to PBMCs samples of the same patients before treatment (−) (A). From each sample […] was separated on 10% SDS-PAGE. Blots were incubated with Rabbit a-PAI-1 (1:500) and mouse Tubulin (1:500). The signal intensities of a protein band and its surrounding background were scanned for each protein and quantified by using Quantity One 4.6.9 software. The resultant background-subtracted values of protein expression were normalized to those of Tubulin and then plotted as the relative protein levels for each patient with or without LAQ treatment (B).
For verification of key genes on protein level Western blot analysis was performed. Supernatant was collected and protein concentration was determined using a Bradford assay (Pierce, Rockford, Ill., USA) according the manufacturer's guidelines. Equal amounts of protein were suspended in sample buffer and boiled for 5 min. Cell lysates were resolved on 10% SDS-polyacrylamide gel electrophoresis (PAGE). […] The blots were then washed three times with TBST buffer and analyzed by standard chemiluminescence (Supersignal Kit, Pierce, Rockford, Ill., USA) according to the company's protocol.

RRMS patients [2] = details: cited from earlier work

Q: With CCN(C(=O)c1c(O)c2c(Cl)cccc2n(C)c1=O)c1ccccc1 [LAQ, 5-chloro-N-ethyl-4-hydroxy-1-methyl-2-oxo-N-phenyl-1,2-dihydroquinoline-3-carboxamide] as the compound, how does the “reduction in the cumulative number of gadolinium enhanced lesions in brain MRI” value (RRMS patients [1]) read?
A: about 40%

Q: What about the “down regulation of ITGB1 protein” value (ITGB1) of the same compound?
A: 40%

Q: What about the “down-regulation of TGFB1 protein level (band intensities normalized against Tubulin)” value (TGFB1; four out of five patients, 6 months of LAQ treatment vs before treatment) of the same compound?
A: 20-50%

Q: What about the “TGFb protein suppressed by (quantification of bands intensities)” value (TGFB1; six months of LAQ treatment vs baseline, n=5) of the same compound?
A: 69.0%

Q: What about the “reduced expression of PAI-1 protein (band intensities normalized against tubulin)” value (PAI-1 (Serpine 1)) of the same compound?
A: 30-50%

Q: What about the annualized relapse rate (RRMS patients [2]; RRMS patients treated for 24 months) of the same compound?
A: modestly decreased

Q: What about the “safety and tolerability profile” value (RRMS patients [2]; two phase III trials (BRAVO, ALLEGRO)) of the same compound?
A: favorable
